Patent US20100267561A1, “HERBICIDAL PYRIDAZINONE DERIVATIVES” (priority 2007, published 2010)

How the values were obtained:
Experiment in all cases: Test B pre-/postemergence plant response
Type in all cases: in vivo
wild oat (Avena fatua) = test system: wild oat (Avena fatua)
In short: (§1)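 Preemergence and postemergence (plants 2-18 cm, 1- to 4-leaf stage) applications used test chemicals in a non-phytotoxic solvent with surfactant. Plants were held in a greenhouse 13 to 15 days, then rated visually against controls on a 0-100 scale (0 no effect, 100 complete control).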

[1] = test system: downy bromegrass (Bromus tectorum); settings: for Bromegrass, Downy plant response rating: 8 g ai/ha
In short: as §1

[2] = test system: catchweed bedstraw (Galium aparine); settings: Preemergence
In short: as §1

[3] = test system: woolly cupgrass (Eriochloa villosa)
In short: as §1

[4] = test system: green foxtail (Setaria viridis)
In short: as §1

[5] = test system: eastern black (E.B.) nightshade (Solanum ptycanthum); settings: Preemergence
In short: as §1

[6] = test system: pigweed (Amaranthus retroflexus)
In short: as §1

[7] = test system: morningglory (Ipomoea coccinea)
In short: as §1

[8] = test system: blackgrass (Alopecurus myosuroides); settings: for Blackgrass plant response rating: 8 g ai/ha
In short: as §1

[9] = test system: yellow nutsedge (Cyperus esculentus)
In short: as §1

[10] = test system: Italian ryegrass (Lolium multiflorum)
In short: as §1

[11] = test system: giant foxtail (Setaria faberii)
In short: as §1

[12] = test system: velvetleaf (Abutilon theophrasti)
In short: as §1

[13] = test system: johnsongrass (Sorghum halepense)
In short: as §1

[14] = 8 g ai/ha, postemergence, 0-100 scale
[15] = Postemergence, 16 g ai/ha, scale 0 to 100
[16] = Postemergence, 31 g ai/ha, scale 0 to 100
[17] = Postemergence, 62 g ai/ha, scale 0 to 100, 0 no effect, 100 complete control
[18] = Preemergence, 31 g ai/ha, scale 0 to 100 (0 no effect, 100 complete control)
[19] = Preemergence, 62 g ai/ha, 0 to 100 scale, 0 no effect, 100 complete control
[20] = Preemergence, 8 g ai/ha, scale 0 to 100
[21] = Preemergence, 16 g ai/ha, scale 0 to 100
[22] = Preemergence, 16 g ai/ha, scale 0 to 100 (0 no effect, 100 complete control)
[23] = 31 g ai/ha, scale 0 to 100 (0 no effect, 100 complete control)
[24] = 62 g ai/ha, 0 to 100 scale, 0 no effect, 100 complete control
[25] = Postemergence, 31 g ai/ha, scale 0 to 100, 0 no effect, 100 complete control
[26] = Preemergence, 31 g ai/ha, 0 to 100 scale, 0 no effect, 100 complete control
[27] = Preemergence, 62 g ai/ha, scale 0 to 100
[28] = 16 g ai/ha, scale 0 to 100 (0 no effect, 100 complete control)
[29] = 31 g ai/ha, 0 to 100 scale, 0 no effect, 100 complete control

CCCC(=O)Oc1cnn(C)c(=O)c1-n1nc(-c2ccc(Cl)cc2)cc1C [Compound 56]
Oat, Wild plant response rating (wild oat (Avena fatua); [14]): 5
Plant response rating, Oat, Wild (wild oat (Avena fatua); [15]): 85
Plant response rating, Oat, Wild (wild oat (Avena fatua); [16]): 90
Plant response rating, Oat, Wild (wild oat (Avena fatua); [17]): 90
Plant response rating, Oat, Wild (wild oat (Avena fatua); [18]): 60
Plant response rating, Oat, Wild (wild oat (Avena fatua); [19]): 90
Oat, Wild plant response rating (wild oat (Avena fatua); [20]): 0
Oat, Wild plant response rating (wild oat (Avena fatua); [21]): 50
Bromegrass, Downy plant response rating ([1]; postemergence, 0-100 scale): 0
Plant response rating, Bromegrass, Downy [1, 15]: 0
Plant response rating, Bromegrass, Downy [1, 16]: 0
Plant response rating, Bromegrass, Downy [1, 17]: 0
Plant response rating, Bromegrass, Downy [1, 22]: 20
Plant response rating, Bromegrass, Downy [1, 18]: 45
Plant response rating, Bromegrass, Downy [1, 19]: 75
Bromegrass, Downy plant response rating ([1]; Preemergence, scale 0 to 100): 0
Plant response rating, Galium [2, 23]: 0
Plant response rating, Galium [2, 24]: 0
Galium plant response rating ([2]; 8 g ai/ha, scale 0 to 100): 0
Galium plant response rating ([2]; 16 g ai/ha, scale 0 to 100): 0
Cupgrass, Woolly plant response rating [3, 14]: 95
Plant response rating, Cupgrass, Woolly [3, 15]: 100
Plant response rating, Cupgrass, Woolly [3, 16]: 100
Plant response rating, Cupgrass, Woolly [3, 17]: 100
Plant response rating, Cupgrass, Woolly [3, 18]: 100
Plant response rating, Cupgrass, Woolly [3, 19]: 100
Cupgrass, Woolly plant response rating [3, 20]: 0
Cupgrass, Woolly plant response rating [3, 21]: 80
Foxtail, Green plant response rating [4, 14]: 50
Plant response rating, Foxtail, Green [4, 15]: 90
Plant response rating, Foxtail, Green [4, 16]: 90
Plant response rating, Foxtail, Green [4, 17]: 100
Plant response rating, Foxtail, Green [4, 18]: 100
Plant response rating, Foxtail, Green [4, 19]: 100
Foxtail, Green plant response rating [4, 20]: 65
Foxtail, Green plant response rating [4, 21]: 65
Plant response rating, Nightshade, E. B. [5, 23]: 0
Plant response rating, Nightshade, E. B. [5, 24]: 20
Nightshade, E. B. plant response rating ([5]; 8 g ai/ha, scale 0 to 100): 0
Nightshade, E. B. plant response rating ([5]; 16 g ai/ha, scale 0 to 100): 0
Pigweed plant response rating [6, 14]: 0
Plant response rating, Pigweed [6, 15]: 0
Plant response rating, Pigweed [6, 16]: 0
Plant response rating, Pigweed [6, 17]: 0
Plant response rating, Pigweed [6, 18]: 0
Plant response rating, Pigweed [6, 19]: 0
Pigweed plant response rating [6, 20]: 0
Pigweed plant response rating [6, 21]: 0
Morningglory plant response rating [7, 14]: 0
Plant response rating, Morningglory [7, 15]: 0
Plant response rating, Morningglory [7, 16]: 0
Plant response rating, Morningglory [7, 17]: 0
Plant response rating, Morningglory [7, 18]: 0
Plant response rating, Morningglory [7, 19]: 0
Morningglory plant response rating [7, 20]: 0
Morningglory plant response rating [7, 21]: 0
Blackgrass plant response rating ([8]; postemergence, 0-100 scale): 0
Plant response rating, Blackgrass [8, 15]: 65
Plant response rating, Blackgrass [8, 16]: 95
Plant response rating, Blackgrass [8, 17]: 98
Plant response rating, Blackgrass [8, 22]: 60
Plant response rating, Blackgrass [8, 18]: 98
Plant response rating, Blackgrass [8, 19]: 98
Blackgrass plant response rating ([8]; Preemergence, scale 0 to 100): 40
Nutsedge, Yellow plant response rating [9, 14]: 0
Plant response rating, Nutsedge, Yellow [9, 15]: 0
Plant response rating, Nutsedge, Yellow [9, 16]: 0
Plant response rating, Nutsedge, Yellow [9, 17]: 0
Plant response rating, Nutsedge, Yellow [9, 18]: 0
Plant response rating, Nutsedge, Yellow [9, 19]: 0
Nutsedge, Yellow plant response rating [9, 20]: 0
Nutsedge, Yellow plant response rating [9, 21]: 0
Ryegrass, Italian plant response rating [10, 14]: 0
Plant response rating, Ryegrass, Italian [10, 15]: 40
Plant response rating, Ryegrass, Italian [10, 16]: 60
Plant response rating, Ryegrass, Italian [10, 17]: 65
Plant response rating, Ryegrass, Italian [10, 18]: 98
Plant response rating, Ryegrass, Italian [10, 19]: 100
Ryegrass, Italian plant response rating [10, 20]: 60
Ryegrass, Italian plant response rating [10, 21]: 98
Foxtail, Giant plant response rating [11, 14]: 75
Plant response rating, Foxtail, Giant [11, 15]: 98
Plant response rating, Foxtail, Giant [11, 16]: 98
Plant response rating, Foxtail, Giant [11, 17]: 100
Plant response rating, Foxtail, Giant [11, 18]: 100
Plant response rating, Foxtail, Giant [11, 19]: 100
Foxtail, Giant plant response rating [11, 20]: 95
Foxtail, Giant plant response rating [11, 21]: 100
Velvetleaf plant response rating [12, 14]: 0
Plant response rating, Velvetleaf [12, 15]: 0
Plant response rating, Velvetleaf [12, 16]: 0
Plant response rating, Velvetleaf [12, 17]: 0
Plant response rating, Velvetleaf [12, 18]: 0
Plant response rating, Velvetleaf [12, 19]: 0
Velvetleaf plant response rating [12, 20]: 0
Velvetleaf plant response rating [12, 21]: 0
Johnsongrass plant response rating [13, 14]: 0
Plant response rating, Johnsongrass [13, 15]: 65
Plant response rating, Johnsongrass [13, 16]: 85
Plant response rating, Johnsongrass [13, 17]: 100
Plant response rating, Johnsongrass [13, 18]: 70
Plant response rating, Johnsongrass [13, 19]: 100
Johnsongrass plant response rating [13, 20]: 60
Johnsongrass plant response rating [13, 21]: 65

Cc1cc(-c2ccc(Cl)cc2)nn1-c1c(OC(=O)c2ccccc2Cl)cnn(C)c1=O [Compound 38]
Oat, Wild plant response rating (wild oat (Avena fatua); [14]): 80
Plant response rating, Oat, Wild (wild oat (Avena fatua); [15]): 90
Plant response rating, Oat, Wild (wild oat (Avena fatua); [25]): 95
Plant response rating, Oat, Wild (wild oat (Avena fatua); [17]): 100
Plant response rating, Oat, Wild (wild oat (Avena fatua); [22]): 60
Plant response rating, Oat, Wild (wild oat (Avena fatua); [26]): 85
Plant response rating, Oat, Wild (wild oat (Avena fatua); [27]): 90
Oat, Wild plant response rating (wild oat (Avena fatua); [20]): 0
Bromegrass, Downy plant response rating ([1]; postemergence, 0-100 scale): 30
Plant response rating, Bromegrass, Downy [1, 15]: 45
Plant response rating, Bromegrass, Downy [1, 25]: 50
Plant response rating, Bromegrass, Downy [1, 17]: 60
Plant response rating, Bromegrass, Downy [1, 22]: 55
Plant response rating, Bromegrass, Downy [1, 26]: 60
Plant response rating, Bromegrass, Downy [1, 27]: 90
Bromegrass, Downy plant response rating ([1]; Preemergence, scale 0 to 100): 55
Plant response rating, Galium [2, 28]: 0
Plant response rating, Galium [2, 29]: 0
Plant response rating, Galium ([2]; 62 g ai/ha, scale 0 to 100): 0
Galium plant response rating ([2]; 8 g ai/ha, scale 0 to 100): 0
Cupgrass, Woolly plant response rating [3, 14]: 70
Plant response rating, Cupgrass, Woolly [3, 15]: 98
Plant response rating, Cupgrass, Woolly [3, 25]: 100
Plant response rating, Cupgrass, Woolly [3, 17]: 100
Plant response rating, Cupgrass, Woolly [3, 22]: 50
Plant response rating, Cupgrass, Woolly [3, 26]: 90
Plant response rating, Cupgrass, Woolly [3, 27]: 100
Cupgrass, Woolly plant response rating [3, 20]: 0
Foxtail, Green plant response rating [4, 14]: 30
Plant response rating, Foxtail, Green [4, 15]: 75
Plant response rating, Foxtail, Green [4, 25]: 80
Plant response rating, Foxtail, Green [4, 17]: 98
Plant response rating, Foxtail, Green [4, 22]: 100
Plant response rating, Foxtail, Green [4, 26]: 100
Plant response rating, Foxtail, Green [4, 27]: 100
Foxtail, Green plant response rating [4, 20]: 30
Plant response rating, Nightshade, E. B. [5, 28]: 0
Plant response rating, Nightshade, E. B. [5, 29]: 0
Plant response rating, Nightshade, E. B. ([5]; 62 g ai/ha, scale 0 to 100): 0
Nightshade, E. B. plant response rating ([5]; 8 g ai/ha, scale 0 to 100): 0
Pigweed plant response rating [6, 14]: 0
Plant response rating, Pigweed [6, 15]: 0
Plant response rating, Pigweed [6, 25]: 0
Plant response rating, Pigweed [6, 17]: 0
Plant response rating, Pigweed [6, 22]: 0
Plant response rating, Pigweed [6, 26]: 0
Plant response rating, Pigweed [6, 27]: 0
Pigweed plant response rating [6, 20]: 0
Morningglory plant response rating [7, 14]: 0
Plant response rating, Morningglory [7, 15]: 0
Plant response rating, Morningglory [7, 25]: 0
Plant response rating, Morningglory [7, 17]: 0
Plant response rating, Morningglory [7, 22]: 0
Plant response rating, Morningglory [7, 26]: 0
Plant response rating, Morningglory [7, 27]: 0
Morningglory plant response rating [7, 20]: 0
Blackgrass plant response rating ([8]; postemergence, 0-100 scale): 0
Plant response rating, Blackgrass [8, 15]: 40
Plant response rating, Blackgrass [8, 25]: 80
Plant response rating, Blackgrass [8, 17]: 98
Plant response rating, Blackgrass [8, 26]: 90
Plant response rating, Blackgrass [8, 27]: 100
Blackgrass plant response rating ([8]; Preemergence, scale 0 to 100): 90
Nutsedge, Yellow plant response rating [9, 14]: 0
Plant response rating, Nutsedge, Yellow [9, 15]: 0
Plant response rating, Nutsedge, Yellow [9, 25]: 0
Plant response rating, Nutsedge, Yellow [9, 17]: 0
Plant response rating, Nutsedge, Yellow [9, 22]: 0
Plant response rating, Nutsedge, Yellow [9, 26]: 0
Plant response rating, Nutsedge, Yellow [9, 27]: 0
Nutsedge, Yellow plant response rating [9, 20]: 0
Ryegrass, Italian plant response rating [10, 14]: 10
Plant response rating, Ryegrass, Italian [10, 15]: 85
Plant response rating, Ryegrass, Italian [10, 25]: 85
Plant response rating, Ryegrass, Italian [10, 17]: 98
Plant response rating, Ryegrass, Italian [10, 22]: 80
Plant response rating, Ryegrass, Italian [10, 26]: 95
Plant response rating, Ryegrass, Italian [10, 27]: 100
Ryegrass, Italian plant response rating [10, 20]: 30
Foxtail, Giant plant response rating [11, 14]: 0
Plant response rating, Foxtail, Giant [11, 15]: 20
Plant response rating, Foxtail, Giant [11, 25]: 50
Plant response rating, Foxtail, Giant [11, 17]: 100
Plant response rating, Foxtail, Giant [11, 22]: 98
Plant response rating, Foxtail, Giant [11, 26]: 100
Plant response rating, Foxtail, Giant [11, 27]: 100
Foxtail, Giant plant response rating [11, 20]: 45
Velvetleaf plant response rating [12, 14]: 0
Plant response rating, Velvetleaf [12, 15]: 0
Plant response rating, Velvetleaf [12, 17]: 0
Plant response rating, Velvetleaf [12, 22]: 0
Plant response rating, Velvetleaf [12, 26]: 0
Plant response rating, Velvetleaf [12, 27]: 0
Velvetleaf plant response rating [12, 20]: 0
Johnsongrass plant response rating [13, 14]: 60
Plant response rating, Johnsongrass [13, 15]: 65
Plant response rating, Johnsongrass [13, 25]: 90
Plant response rating, Johnsongrass [13, 17]: 100
Plant response rating, Johnsongrass [13, 26]: 70
Plant response rating, Johnsongrass [13, 27]: 80
Johnsongrass plant response rating [13, 20]: 0
